From patent publication US20210368788A1, “METHODS FOR USING ANTIMICROBIAL COMPOSITIONS” (Next Science IP Holdings Pty Ltd, priority 2016, published 2021)

Test: Testing of lysozyme amount for efficacy (method not described)
Conditions: 0.08 g lysozyme per kg of composition

With lysozyme the “lowest amount exhibiting some efficacy” value was 80 ppm.
